Reference: patent US9271994B2, “Compositions and methods related to calcitriol” (VDF Futureceuticals, Inc., priority 2009, dated 2016)

What was measured:
Type in all cases: in vivo
[1] = test system: serum calcium, serum phosphate, parathyroid hormone, calcitonin; test: Serum calcium, phosphate, parathyroid hormone and calcitonin upon administration; details: about 550 mg; data not shown
[2] = Intact Ca-Fructoborate in serum of orally treated fasted mice by LC-MS; details: oral gavage 600 mcg/mouse; for Intact Ca-fructoborate in serum: fasted mice
Description: Using LC-MS, Ca-Fructoborate was detected and measured from serum samples at concentrations as low as 0.2 ppm and higher. This method was used to analyze the presence and amount of Ca-Fructoborate in serum collected from mice treated orally (gavage) with Ca-Fructoborate in liquid at dose 600 mcg/mouse for 30 and 60 minutes.
Detection of intact Ca-Fructoborate in sera collected from fasted mice treated orally with the compound for 30 or 60 minutes. Collected sera were diluted in running buffer and filtered through 0.45 PVDF filter. This solution was analyzed by LCMS for Ca-Fructoborate as the fructoborate anion.

blood calcitriol = test: Blood/serum calcitriol after single oral dose in human volunteers (radioimmuno assay)
Description: (§1) In a typical example, five subjects were administered a single dosage of 552 mg calcium fructoborate upon informed consent, and blood was drawn immediately prior to administration and after 30, 60, 90, and 120 minutes. Calcitriol was measured using a standard radioimmuno assay from a commercial lab starting from 4 ml whole blood (numerous alternative methods are also deemed suitable, including those described in U.S. Pat. Nos. 4,585,741, 5,202,266, and 6,455,714). From each sample and for each time point, concentrations of calcidiol and calcitriol in serum were measured and the data are shown in FIGS. 1A to 1D. FIG. 1A depicts the effect of oral administration of calcium fructoborate on blood calcitriol 30 minutes after oral administration, FIG. 1B depicts the effect of oral administration of calcium fructoborate on blood calcitriol 60 minutes after oral administration, and FIG. 1C depicts the effect of oral administration of calcium fructoborate on blood calcitriol 90 minutes after oral administration. FIG. 1D depicts the effect of oral administration of calcium fructoborate on blood calcitriol 90-120 minutes after oral administration.
FIGS. 2A and 2B depict a graphic illustration of the results from this study where the biphasic mode of modulation of calcitriol is clearly seen between times 0-90 minutes (decrease) and 90-120 minutes (increase). In most cases, it is expected that the so increased calcitriol level will drop back to starting levels within 6 hours or less, and more typically within 4 hours, or less (data not shown). FIG. 3 depicts another graphic representation in which the exclusive modulation of calcitriol versus calcidiol is shown.
While not wishing to be bound by any theory or hypothesis, the inventors contemplate that the compounds according to the inventive subject matter increase serum concentration of calcitriol in a bi-modal manner. During the first 60 minutes, a moderate increase is observed in the case of subjects with low initial level of calcitriol (<30 pg/ml), but not in subjects with initial level >30 pg/ml. […]

calcidiol = test: Serum calcidiol after single oral dose in human volunteers; details: single oral dosage of 552 mg, five subjects, 30-120 minutes after administration
Description: as §1

## calcium fructoborate
[1]
  change of serum calcium concentration: 5-15%
  change of serum concentration of calcitonin: 10-30%
  change of serum concentration of parathyroid hormone: 10-30%
  change of serum phosphate concentration: 5-15%
[2]; 30 minutes
  Intact Ca-fructoborate in serum: 449 µg/mL
[2]; 60 minutes
  Intact Ca-fructoborate in serum: 556 µg/mL
[2]; mice (20 g by average)
  bioavailability of the compound: 556 mcg/ml of serum
[2]; mice, 30 and 60 minutes
  delivery from intestine to bloodstream: in intact form and in time-dependent manner
Blood calcitriol; single oral 552 mg, 0-90 minutes
  modulation of calcitriol between times 0-90 minutes: decrease
Blood calcitriol; single oral 552 mg, 90-120 minutes
  modulation of calcitriol between times 90-120 minutes: increase
Blood calcitriol; single oral dosage of 552 mg, five subjects, 30-120 minutes after administration
  calcitriol serum concentration: significantly and acutely affected
calcidiol
  calcidiol concentration: remained unaffected
